The values that follow come from US20240368109A1, “ALLOSTERIC MODULATORS OF NICOTINIC ACETYLCHOLINE RECEPTORS” (MERCK SHARP & DOHME LLC, priority 2021, published 2024).

This assay has as its target human α7 nAChR (Homo sapiens (Human), UniProt P36544). The experiment in a line: Automated patch-clamp electrophysiology functional assay (Assay A). Particulars: IonFlux HT whole-cell population patch, HEK cells expressing human α7/RIC-3, 40 μM acetylcholine. Format: cell-based. The procedure, abridged: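 Whole-cell population patch clamp on HEK cells stably co-expressing human α7 and RIC-3, held at −60 mV, room temperature. Compounds tested at three ascending concentrations per recording with or without 40 μM acetylcholine; currents normalized to the 40 μM acetylcholine-evoked reference response to give agonist and potentiation EC50.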

human α7 nAChR, sequence (P36544 23-502): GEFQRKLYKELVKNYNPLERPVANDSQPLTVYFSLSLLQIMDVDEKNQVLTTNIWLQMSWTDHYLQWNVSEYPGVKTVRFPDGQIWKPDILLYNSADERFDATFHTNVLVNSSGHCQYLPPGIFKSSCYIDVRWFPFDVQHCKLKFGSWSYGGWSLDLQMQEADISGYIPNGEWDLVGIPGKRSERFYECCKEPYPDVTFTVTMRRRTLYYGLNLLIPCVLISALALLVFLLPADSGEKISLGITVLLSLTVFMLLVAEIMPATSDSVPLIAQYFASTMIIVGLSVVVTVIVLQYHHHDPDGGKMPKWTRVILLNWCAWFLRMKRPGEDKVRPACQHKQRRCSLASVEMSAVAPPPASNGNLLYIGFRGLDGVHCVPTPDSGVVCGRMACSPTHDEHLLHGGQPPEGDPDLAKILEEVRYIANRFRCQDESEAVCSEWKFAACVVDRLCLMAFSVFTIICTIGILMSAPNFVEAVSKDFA

As for `O=C(NCc1cc(Br)no1)C1C2Oc3ccc(F)cc3C21` (stereo not drawn) [Example C47, exo-N-[(3-bromo-1,2-oxazol-5-yl)methyl]-5-fluoro-1a,6b-dihydro-1H-cyclopropa[b][1]benzofuran-1-carboxamide], the 50% effective concentration (EC50) (potency class) was 500 to 5000 nM. Consider `O=C(N[C@H]1CCOc2cc(F)c(F)cc21)C1C2Oc3ccc(F)cc3C21` (stereo partly drawn) [Example C7, exo-N-[(4S)-6,7-difluoro-3,4-dihydro-2H-1-benzopyran-4-yl]-5-fluoro-1a,6b-dihydro-1H-cyclopropa[b][1]benzofuran-1-carboxamide], for which the concentration for a half-maximal effect (EC50) was 1100 nM (electrophysiology EC50 values) and 500 to 5000 nM (potency class).

`O=C(NCc1cccs1)C1C2Oc3ccc(F)cc3C21` (stereo not drawn) [Example C17, exo-5-fluoro-N-[(thiophen-2-yl)methyl]-1a,6b-dihydro-1H-cyclopropa[b][1]benzofuran-1-carboxamide]: the EC50 is, setting by setting: (electrophysiology EC50 values) 970 nM; (potency class) 500 to 5000 nM. The matching figures for `CCOc1ccc([C@H](COC)NC(=O)C2C3Oc4cc(OC)ccc4C32)cc1` (stereo partly drawn) [Example B17, exo-N-[(1R)-1-(4-ethoxyphenyl)-2-methoxyethyl]-4-methoxy-1a,6b-dihydro-1H-cyclopropa[b][1]benzofuran-1-carboxamide]: 630 nM and 500 to 5000 nM. The matching figures for `O=C(NC1(c2ccc(F)cc2)CC1)C1C2COc3ccc(F)cc3C21` (stereo not drawn) [Example A9, exo-6-fluoro-N-[1-(4-fluorophenyl)cyclopropyl]-1,1a,2,7b-tetrahydrocyclopropa[c][1]benzopyran-1-carboxamide]: 1100 nM and 500 to 5000 nM.

For the molecule `O=C(NCc1nc(Cc2ccccc2)no1)C1C2Oc3ccc(F)cc3C21` (stereo not drawn) [Example C42, exo-N-[(3-benzyl-1,2,4-oxadiazol-5-yl)methyl]-5-fluoro-1a,6b-dihydro-1H-cyclopropa[b][1]benzofuran-1-carboxamide], the EC50 is, setting by setting: (electrophysiology EC50 values) 6600 nM; (potency class) 5000 to 50000 nM.

On to `O=C(NC1(c2ccc(F)cc2)COC1)C1C2COc3ccccc3C21` (stereo not drawn) [Example A1, exo-N-[3-(4-fluorophenyl)oxetan-3-yl]-1,1a,2,7b-tetrahydrocyclopropa[c][1]benzopyran-1-carboxamide], for which the EC50 (electrophysiology EC50 values) was 1500 nM and the EC50 (potency class) lay within 500 to 5000 nM.

In the case of `CCOc1ccc([C@H](COC)NC(=O)C2C3Oc4ccccc4C32)cc1` (stereo partly drawn) [Example B3, exo-N-[(1R)-1-(4-ethoxyphenyl)-2-methoxyethyl]-1a,6b-dihydro-1H-cyclopropa[b][1]benzofuran-1-carboxamide], the EC50 runs as follows: (electrophysiology EC50 values) 470 nM; (potency class) 100 to 500 nM. On to `O=C(NCc1nnc(-c2ccccc2)o1)C1C2Oc3ccc(F)cc3C21` (stereo not drawn) [Example C50, exo-5-fluoro-N-[(5-phenyl-1,3,4-oxadiazol-2-yl)methyl]-1a,6b-dihydro-1H-cyclopropa[b][1]benzofuran-1-carboxamide], for which the half-maximal effective concentration (EC50) is, setting by setting: (electrophysiology EC50 values) 480 nM; (potency class) 100 to 500 nM. As to `O=C(N[C@H]1CCOc2cc(F)ccc21)C1C2Oc3ccc(F)cc3C21` (stereo partly drawn) [Example C6, exo-5-fluoro-N-[(4S)-7-fluoro-3,4-dihydro-2H-1-benzopyran-4-yl]-1a,6b-dihydro-1H-cyclopropa[b][1]benzofuran-1-carboxamide], the EC50 (electrophysiology EC50 values) worked out at 860 nM and the concentration for a half-maximal effect (EC50) (potency class) lay within 500 to 5000 nM. The matching figures for `O=C(N[C@@H](CO)C1CCCCC1)C1C2COc3ccc(F)cc3C21` (stereo partly drawn) [Example 3, exo-N-[(1R)-1-Cyclohexyl-2-hydroxyethyl]-6-fluoro-1,1a,2,7b-tetrahydrocyclopropa[c][1]benzopyran-1-carboxamide]: 1700 nM and 500 to 5000 nM.

With `O=C(NCc1ccc(Cl)c(F)c1)C1C2Oc3ccc(F)cc3C21` (stereo not drawn) [Example C15, exo-N-[(4-chloro-3-fluorophenyl)methyl]-5-fluoro-1a,6b-dihydro-1H-cyclopropa[b][1]benzofuran-1-carboxamide], the EC50 (electrophysiology EC50 values) came out at 5600 nM and the EC50 (potency class) lay in the range of 5000 to 50000 nM. Regarding `O=C(NCc1nc(-c2ccccc2)no1)C1C2Oc3ccc(F)cc3C21` (stereo not drawn) [Example C53, exo-5-fluoro-N-[(3-phenyl-1,2,4-oxadiazol-5-yl)methyl]-1a,6b-dihydro-1H-cyclopropa[b][1]benzofuran-1-carboxamide], the EC50 is 1500 nM (electrophysiology EC50 values) and 500 to 5000 nM (potency class). As to `O=C(NCc1n[nH]c2c1CCCCC2)[C@H]1[C@@H]2Oc3ccc(F)cc3[C@@H]21` [Example C33, 3-{[(exo-5-fluoro-1a,6b-dihydro-1H-cyclopropa[b][1]benzofuran-1-carbonyl)amino]methyl}-1,4,5,6,7,8-hexahydrocyclohepta[c]pyrazole], the EC50 (potency class) lay within 500 to 5000 nM. With `CC(NC(=O)C1C2Oc3ccc(F)cc3C21)c1ccc(Br)cc1` (stereo not drawn) [Example C37, exo-N-[1-(4-bromophenyl)ethyl]-5-fluoro-1a,6b-dihydro-1H-cyclopropa[b][1]benzofuran-1-carboxamide], the concentration for a half-maximal effect (EC50) was 1800 nM (electrophysiology EC50 values) and 500 to 5000 nM (potency class). The matching figures for `O=C(NCc1cccc(I)c1)C1C2Oc3ccc(F)cc3C21` (stereo not drawn) [Example C21, exo-5-fluoro-N-[(3-iodophenyl)methyl]-1a,6b-dihydro-1H-cyclopropa[b][1]benzofuran-1-carboxamide]: 2100 nM and 500 to 5000 nM. The matching figures for `COc1cc(C2(NC(=O)C3C4COc5ccccc5C43)CCC2)ccn1` (stereo not drawn) [Example A12, exo-N-[1-(2-methoxypyridin-4-yl)cyclobutyl]-1,1a,2,7b-tetrahydrocyclopropa[c][1]benzopyran-1-carboxamide]: 1500 nM and 500 to 5000 nM. The matching figures for `COc1cccc(OC)c1CNC(=O)C1C2COc3ccccc3C21` (stereo not drawn) [Example A17, exo-N-[(2,6-dimethoxyphenyl)methyl]-1,1a,2,7b-tetrahydrocyclopropa[c][1]benzopyran-1-carboxamide]: 1100 nM and 500 to 5000 nM. On to `CCOc1ccc([C@H](COC)NC(=O)C2C3Oc4ccc(-c5nn[nH]n5)cc4C32)cc1` (stereo partly drawn) [Example 5, exo-N-[(1R)-1-(4-Ethoxyphenyl)-2-methoxyethyl]-5-(2H-tetrazol-5-yl)-1a,6b-dihydro-1H-cyclopropa[b][1]benzofuran-1-carboxamide], for which the EC50 reads like this: (electrophysiology EC50 values) 1500 nM; (potency class) 500 to 5000 nM.

For `COc1ccc(-c2noc(CNC(=O)C3C4Oc5ccc(F)cc5C43)n2)cn1` (stereo not drawn) [Example C51, exo-5-fluoro-N-{[3-(6-methoxypyridin-3-yl)-1,2,4-oxadiazol-5-yl]methyl}-1a,6b-dihydro-1H-cyclopropa[b][1]benzofuran-1-carboxamide], the EC50 reads like this: (electrophysiology EC50 values) 1000 nM; (potency class) 500 to 5000 nM. The matching figures for `CCOc1ccc([C@@H](NC(=O)C2C3COc4ccc(F)cc4C32)C(F)F)cn1` (stereo partly drawn) [Example A14, exo-N-[(1R)-1-(6-ethoxypyridin-3-yl)-2,2-difluoroethyl]-6-fluoro-1,1a,2,7b-tetrahydrocyclopropa[c][1]benzopyran-1-carboxamide]: 1100 nM and 500 to 5000 nM. The matching figures for `CCOc1ccc([C@H](CF)NC(=O)C2C3COc4ccc(F)cc4C32)cn1` (stereo partly drawn) [Example A15, exo-N-[(1R)-1-(6-ethoxypyridin-3-yl)-2-fluoroethyl]-6-fluoro-1,1a,2,7b-tetrahydrocyclopropa[c][1]benzopyran-1-carboxamide]: 1500 nM and 500 to 5000 nM. Take `COC(CNC(=O)[C@@H]1[C@H]2COc3ccc(F)cc3[C@H]21)C1CCCCC1` (single isomer, unassigned) [Example A4, exo-N-(2-cyclohexyl-2-methoxyethyl)-6-fluoro-1,1a,2,7b-tetrahydrocyclopropa[c][1]benzopyran-1-carboxamide]: under “potency class”, the concentration giving a half-maximal response (EC50) is 500 to 5000 nM. Take `O=C(NCc1ccc2ncccc2c1)C1C2Oc3ccc(F)cc3C21` (stereo not drawn) [Example C27, 6-{[(exo-5-fluoro-1a,6b-dihydro-1H-cyclopropa[b][1]benzofuran-1-carbonyl)amino]methyl}quinoline]: the concentration giving a half-maximal response (EC50) runs as follows: (electrophysiology EC50 values) 2000 nM; (potency class) 500 to 5000 nM. The matching figures for `CCOc1ccc([C@H](COC)NC(=O)C2C3Oc4ccc(-c5c(C)noc5C)cc4C32)cc1` (stereo partly drawn) [Example B10, exo-5-(3,5-dimethyl-1,2-oxazol-4-yl)-N-[(1R)-1-(4-ethoxyphenyl)-2-methoxyethyl]-1a,6b-dihydro-1H-cyclopropa[b][1]benzofuran-1-carboxamide]: 2800 nM and 500 to 5000 nM.

With `CCOc1ccc([C@H](COC)NC(=O)C2C3Oc4ccccc4C32)cc1` (stereo partly drawn) [Example B1, exo-N-[(1R)-1-(4-ethoxyphenyl)-2-methoxyethyl]-1a,6b-dihydro-1H-cyclopropa[b][1]benzofuran-1-carboxamide], the EC50 reads like this: (electrophysiology EC50 values) 1200 nM; (potency class) 500 to 5000 nM.

As to `CCOc1ccc(C2(NC(=O)C3C4Oc5ccc(F)cc5C43)CCC2)cn1` (stereo not drawn) [Example C3, exo-N-[1-(6-ethoxypyridin-3-yl)cyclobutyl]-5-fluoro-1a,6b-dihydro-1H-cyclopropa[b][1]benzofuran-1-carboxamide], the EC50 (electrophysiology EC50 values) turned out to be 5600 nM and the concentration for a half-maximal effect (EC50) (potency class) lay within 5000 to 50000 nM. The matching figures for `CCOc1ccc(C2(NC(=O)C3C4COc5ccccc5C43)CCC2)cn1` (stereo not drawn) [Example A11, exo-N-[1-(6-ethoxypyridin-3-yl)cyclobutyl]-1,1a,2,7b-tetrahydrocyclopropa[c][1]benzopyran-1-carboxamide]: 620 nM and 500 to 5000 nM. The matching figures for `O=C(N[C@@H](C(F)F)C1CCCCC1)C1C2COc3ccccc3C21` (stereo partly drawn) [Example A20, exo-N-[(1R)-1-cyclohexyl-2,2-difluoroethyl]-1,1a,2,7b-tetrahydrocyclopropa[c][1]benzopyran-1-carboxamide]: 570 nM and 500 to 5000 nM. `O=C(NCc1nc2ccccc2s1)C1C2Oc3ccc(F)cc3C21` (stereo not drawn) [Example C28, 2-{[(exo-5-fluoro-1a,6b-dihydro-1H-cyclopropa[b][1]benzofuran-1-carbonyl)amino]methyl}-1,3-benzothiazole]: the 50% effective concentration (EC50) (potency class) was 500 to 5000 nM.
